Measured values taken from PMC12730722, “Identification and Functional Characterization of the Leg-Enriched Chemosensory Protein PxylCSP9 in Plutella xylostella (Lepidoptera: Plutellidae)” (Biology, 2025).

Experiments:
PxylCSP9 [1] = target: T1, PxylCSP9 (Plutella xylostella, UniProt A0A8S4FJE6); experiment: Binding of fluorescent probe Bis-ANS to PxylCSP9 (titration, Scatchard plot); details: 1 μM protein, 50 mM Tris-HCl pH 7.4, probe 1 to 10 μM, read-out: dissociation constant of PxylCSP9/Bis-ANS complex
T1 sequence (A0A8S4FJE6 entry or part of it): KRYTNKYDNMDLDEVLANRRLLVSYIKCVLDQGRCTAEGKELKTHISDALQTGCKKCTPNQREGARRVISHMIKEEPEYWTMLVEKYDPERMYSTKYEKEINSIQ
Protocol: To identify the ligands that bind to PxylCSP9, we selected several typical chemical components from the host plants of P. xylostella for fluorescence competitive binding experiments. The purity of all ligands and the fluorescent probe 4,4′-dianilino-1,1′-binaphthyl-5,5′-sulfonate (Bis-ANS) was ≥95%, which was purchased from Aladdin (Shanghai, China) or Sigma-Aldrich (St. Louis, MO, USA.). All the compounds were dissolved individually in chromatography-grade methanol (Aladdin, Shanghai, China) to prepare 1 mM stock solutions. Fluorescence competitive binding assays were performed using an RF-5301 Fluorescence Spectrophotometer (Shimadzu, Kyoto, Japan) with a quartz cuvette of a 1 cm path length. The excitation and emission slit widths were both set to 5 nm. The excitation wavelength of the fluorescent probe was 365 nm, and the emission spectra were recorded from 400 to 580 nm.
The affinity of Bis-ANS for PxylCSP9 was measured by titrating a 1 μM solution of the protein in 50 mM Tris-HCl (pH 7.4) with aliquots of 1 mM Bis-ANS stock solution to final probe concentrations ranging from 1 to 10 μM. In competitive binding assays, the ligand concentrations ranging from 0 to 10 μM were added to a solution containing PxylCSP9 (1 μM) and Bis-ANS (1 μM). […]

P. xylostella [2] = test system: P. xylostella; set-up: key to behavioral effect of plant volatile on P. xylostella (attractive / repellent): Refers to plant volatiles that are attractive to P. xylostella; b: Refers to plant volatiles that are repellent to P. xylostella; details: cited from earlier work; for behavioral effect of plant volatile on P. xylostella (attractive / repellent): footnote marks of Table 2, ref 37,45,46,47,48 (a), ref 49,50,51 (b)
P. xylostella [3] = test system: P. xylostella; set-up: method as in doi:10.1111/j.1744-7917.2004.tb00178.x, doi:10.1111/jen.13144, PMID 29474734; details: cited from earlier work
PxylCSP9 [4] = target: T1, PxylCSP9; experiment: Fluorescence competitive binding assay (Bis-ANS probe displacement)
Protocol: The purity of all ligands and the fluorescent probe 4,4′-dianilino-1,1′-binaphthyl-5,5′-sulfonate (Bis-ANS) was ≥95%, which was purchased from Aladdin (Shanghai, China) or Sigma-Aldrich (St. Louis, MO, USA.). All the compounds were dissolved individually in chromatography-grade methanol (Aladdin, Shanghai, China) to prepare 1 mM stock solutions. […] The excitation and emission slit widths were both set to 5 nm. The excitation wavelength of the fluorescent probe was 365 nm, and the emission spectra were recorded from 400 to 580 nm.
In competitive binding assays, the ligand concentrations ranging from 0 to 10 μM were added to a solution containing PxylCSP9 (1 μM) and Bis-ANS (1 μM). All data were analyzed based on the assumptions that the protein was 100% active and that binding followed a 1:1 stoichiometry (protein:ligand) at saturation. The binding curves for Bis-ANS were linearized using a Scatchard plot. The dissociation constants of the competitors were calculated from their corresponding IC50 values using the following equation: Ki = [IC50]/(1 + [Bis-ANS]/KBis-ANS), where IC50 is the ligand concentration that reduces the initial fluorescence intensity of Bis-ANS by half, [Bis-ANS] is the free concentration of Bis-ANS, and KBis-ANS is the dissociation constant of the PxylCSP9/Bis-ANS complex.

[5] = test system: certain lepidopteran insects; set-up: method as in PMID 40195004, doi:10.1023/A:1020990018111, doi:10.1023/A:1020750029362; details: cited from earlier work

For `O=S(=O)(O)c1cccc2c(-c3ccc(Nc4ccccc4)c4c(S(=O)(=O)O)cccc34)ccc(Nc3ccccc3)c12` [Bis-ANS, 4,4′-dianilino-1,1′-binaphthyl-5,5′-sulfonate], the Kd (PxylCSP9 [1]) was 4.86 ± 0.04 µM.

For `C=C(C)C1CC=C(C)CC1` (centres unmarked) [Limonene], the “behavioral avoidance response of P. xylostella” value (P. xylostella [2]) is given as “significantly induce its behavioral avoidance response”, the oviposition deterrent effects (P. xylostella [2]) is given as “oviposition deterrent effects” and the “behavioral effect of plant volatile on P. xylostella (attractive / repellent)” value (P. xylostella [2]) is given as “Limonene ^b”. The “EAG response of P. xylostella” value (P. xylostella [3]) was “effectively stimulate the EAG response”.

For `C=CCN=C=S` [Allyl isothiocyanate], the “feeding and oviposition behaviors in P. xylostella” value (P. xylostella [2]) is listed as “induce feeding and oviposition behaviors”.

In the case of `CCCCCCCCC=O` [1-Nonanal], the “behavioral effect of plant volatile on P. xylostella (attractive / repellent)” value (P. xylostella [2]) is given as 1-Nonanal ^a.

In the case of `CC1=CC=C(C(C)C)CC1` [α-Terpinene], the “behavioral avoidance response of P. xylostella” value (P. xylostella [2]) is listed as “significantly induce its behavioral avoidance response”, the oviposition deterrent effects (P. xylostella [2]) is listed as “oviposition deterrent effects” and the “behavioral effect of plant volatile on P. xylostella (attractive / repellent)” value (P. xylostella [2]) is listed as “α-Terpinene ^b”. The “EAG response of P. xylostella” value (P. xylostella [3]) was “effectively stimulate the EAG response”.

In the case of `CC(=O)CCC=C(C)C` [Methyl heptenone], the IC50 (PxylCSP9 [4]; PxylCSP9 1 μM, Bis-ANS 1 μM, 50 mM Tris-HCl pH 7.4, ligand concentration halving Bis-ANS fluorescence) is reported as 20.1 ± 1.98 µM and the Ki (PxylCSP9 [4]; calculated from IC50: Ki = [IC50]/(1 + [Bis-ANS]/KBis-ANS)) is reported as 17 µM.

For `CCCCCCCC(C)C` [2-Methylnonane], the “behavioral effect of plant volatile on P. xylostella (attractive / repellent)” value (P. xylostella [2]) is given as 2-Methylnonane ^b.

In the case of `C=CC(=C)CCC=C(C)C` [Myrcene], the “behavioral avoidance response of P. xylostella” value (P. xylostella [2]) is listed as “significantly induce its behavioral avoidance response”, the “behavioral effect of plant volatile on P. xylostella (attractive / repellent)” value (P. xylostella [2]) is listed as “Myrcene ^b” and the “EAG response of P. xylostella” value (P. xylostella [3]) is listed as “effectively stimulate the EAG response”.

In the case of `C=CC(C)(O)CCC=C(C)C` (centres unmarked) [Linalool], the “behavioral effect of plant volatile on P. xylostella (attractive / repellent)” value (P. xylostella [2]) is listed as “Linalool ^b”.

In the case of `CCC/C=C/C=O` [(E)-2-Hexenal], the “behavioral effect of plant volatile on P. xylostella (attractive / repellent)” value (P. xylostella [2]) is listed as “(E)-2-Hexenal ^a”.

For `OCCc1ccccc1` [Phenethyl alcohol], the “EAG responses and attractive behaviors” value [5] is given as “elicit electroantennogram (EAG) responses and attractive behaviors” and the “behavioral effect of plant volatile on P. xylostella (attractive / repellent)” value (P. xylostella [2]) is given as “Phenethyl alcohol ^a”.

In the case of `CCCC(C)CC(C)C` (centres unmarked) [2,4-Dimethylheptane], the “behavioral effect of plant volatile on P. xylostella (attractive / repellent)” value (P. xylostella [2]) is listed as 2,4-Dimethylheptane ^b.

For `C=C(C)[C@@H]1CC=C(C)C(=O)C1` [(R)-(-)-Carvone], the “behavioral effect of plant volatile on P. xylostella (attractive / repellent)” value (P. xylostella [2]) is given as “(R)-(-)-Carvone ^b”.
